This is an account of results in publication PMC6478789, “A chemical toolbox for the study of bromodomains and epigenetic signaling” (Nature Communications, 2019).

Targets include BRD3(1,2) (Homo sapiens, UniProt Q15059); BRD3(2) (Homo sapiens, UniProt Q15059); BRD8(1) (Homo sapiens, UniProt Q9H0E9); BRD8(2) (Homo sapiens, UniProt Q9H0E9); BRDT(2) (Homo sapiens, UniProt Q58F21); WDR9(2) (Homo sapiens, UniProt Q9NSI6); BRD4(1,2) (Homo sapiens, UniProt O60885).
Common to all, as to experiment: BROMOscan ligand-binding assay
For another assay, the target named is T1, ATAD2A (Homo sapiens, UniProt Q6PL18).
T1 sequence (Q6PL18 980-1092 limits assumed): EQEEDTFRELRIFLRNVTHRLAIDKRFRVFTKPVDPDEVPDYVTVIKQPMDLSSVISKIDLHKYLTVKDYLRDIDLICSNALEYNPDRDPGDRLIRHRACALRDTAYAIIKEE

A further assay concerns the target T2, BAZ2A (Homo sapiens, UniProt Q9UIF9).
T2 sequence (Q9UIF9 1793-1897 limits assumed): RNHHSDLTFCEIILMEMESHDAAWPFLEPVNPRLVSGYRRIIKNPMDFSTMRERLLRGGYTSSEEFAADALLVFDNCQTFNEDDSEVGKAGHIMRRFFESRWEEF

In another assay the target is T3, BAZ2B (Homo sapiens, UniProt Q9UIF8).
T3 sequence (Q9UIF8 2060-2164 limits assumed): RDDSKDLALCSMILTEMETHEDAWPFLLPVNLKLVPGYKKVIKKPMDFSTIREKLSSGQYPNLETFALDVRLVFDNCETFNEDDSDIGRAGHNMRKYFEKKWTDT

The target of a further assay is T4, BRD1 (Homo sapiens, UniProt O95696).
T4 sequence (O95696 562-666 limits assumed): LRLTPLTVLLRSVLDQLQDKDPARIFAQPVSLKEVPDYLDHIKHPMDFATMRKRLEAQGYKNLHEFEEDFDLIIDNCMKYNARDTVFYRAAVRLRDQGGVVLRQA

The target of the next assay is T5, BRD9 (Homo sapiens, UniProt Q9H8M2).
T5 sequence (Q9H8M2 136-240 limits assumed): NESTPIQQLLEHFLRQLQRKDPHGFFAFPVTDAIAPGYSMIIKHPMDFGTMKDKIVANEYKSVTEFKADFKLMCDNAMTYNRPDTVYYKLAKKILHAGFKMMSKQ

For the next assay, the target named is PBRM1(5) (Homo sapiens, UniProt Q86U86). The note with it: PBRM1(5).
The next assay concerns the target T6, BRPF1 (Homo sapiens, UniProt P55201).
T6 sequence (P55201 628-732 limits assumed): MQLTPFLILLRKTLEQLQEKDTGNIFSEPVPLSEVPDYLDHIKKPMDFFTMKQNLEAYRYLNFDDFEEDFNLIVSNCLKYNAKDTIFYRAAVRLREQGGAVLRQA

The mark [1] stands for this setting: read-out: KD (BROMOscan), sheet prints no unit (nM).
Setting [2] is: KD (BROMOscan), sheet prints no unit (nM).

Read-outs that look alike come from different tables or passages of the source.

Chain of BRD3(2) (Q15059 306-415 limits assumed): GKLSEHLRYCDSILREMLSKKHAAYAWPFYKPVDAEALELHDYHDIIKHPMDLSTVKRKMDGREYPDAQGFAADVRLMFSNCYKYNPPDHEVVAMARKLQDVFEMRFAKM
Chain of PBRM1(5) (Q86U86 653-763 limits assumed): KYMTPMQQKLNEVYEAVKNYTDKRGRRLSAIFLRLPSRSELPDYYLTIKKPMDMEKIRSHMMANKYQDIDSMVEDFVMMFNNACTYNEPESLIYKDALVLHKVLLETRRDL
Chain of BRD8(1) (Q9H0E9 706-811 limits assumed): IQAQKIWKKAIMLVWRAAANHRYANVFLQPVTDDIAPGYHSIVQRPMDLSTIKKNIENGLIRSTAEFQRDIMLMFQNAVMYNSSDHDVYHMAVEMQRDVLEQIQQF
Chain of BRD3(1,2) (Q15059 24-416 limits assumed): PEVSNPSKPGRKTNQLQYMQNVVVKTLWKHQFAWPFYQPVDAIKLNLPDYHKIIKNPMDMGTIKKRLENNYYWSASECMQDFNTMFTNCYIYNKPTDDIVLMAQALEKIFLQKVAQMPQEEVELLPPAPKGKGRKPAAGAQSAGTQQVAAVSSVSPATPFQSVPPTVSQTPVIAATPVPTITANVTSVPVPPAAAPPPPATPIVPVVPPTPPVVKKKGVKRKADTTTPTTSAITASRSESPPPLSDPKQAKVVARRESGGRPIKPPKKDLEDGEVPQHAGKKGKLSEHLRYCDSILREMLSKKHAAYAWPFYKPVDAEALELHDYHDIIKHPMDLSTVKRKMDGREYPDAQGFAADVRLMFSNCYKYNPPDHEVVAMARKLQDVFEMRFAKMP
Chain of WDR9(2) (Q9NSI6 1313-1418 limits assumed): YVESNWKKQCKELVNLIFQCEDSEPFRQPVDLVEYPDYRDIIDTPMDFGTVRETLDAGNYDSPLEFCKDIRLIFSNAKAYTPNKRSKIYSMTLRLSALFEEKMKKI
Chain of BRD8(2) (Q9H0E9 1099-1207 limits assumed): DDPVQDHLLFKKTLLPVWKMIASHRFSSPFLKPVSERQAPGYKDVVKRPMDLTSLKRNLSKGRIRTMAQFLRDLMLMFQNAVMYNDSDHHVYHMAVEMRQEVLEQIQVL
Excerpt for ATAD2A: (§1) BROMOscan is a binding assay based on the well-known KINOMEscan technology. This assay measures the binding of a DNA-tagged bromodomain to an immobilized BRD ligand. If an inhibitor is present, it will compete with the bromodomain binding to the immobilized ligand, resulting in reduction of a quantitative PCR (qPCR) signal in a dose-dependent manner.
Excerpt for BAZ2A: as §1
Excerpt for BAZ2B: as §1
Excerpt for BRD1: as §1
Excerpt for BRD3(1,2): as §1
Excerpt for BRD3(2): as §1
Excerpt for BRD4(1,2): as §1
Excerpt for BRD8(1): as §1
Excerpt for BRD8(2): as §1
Excerpt for BRD9: as §1
Excerpt for BRDT(2): as §1
Excerpt for BRPF1: as §1
Excerpt for PBRM1(5): as §1
Excerpt for WDR9(2): as §1

Broadly, the Kd is the concentration at which binding is half-saturated. As to `COc1cc2c(cc1NS(=O)(=O)c1ccc(Br)cc1C)n(C)c(=O)n2C` [OF-1], the Kd on ATAD2A (ATAD2A) was more than 50000 nM; at BAZ2A (BAZ2A) it was 13 µM; at BAZ2B (BAZ2B), 2500 nM; on BRD1 (BRD1) it was 0.36 µM; at BRD3(1,2) (BRD3(1,2)) it was 4900 nM; on BRD3(2) (BRD3(2)), 16000 nM. For the same molecule, the Kd at BRD8(1) (BRD8(1)) is more than 50000 nM; at BRD8(1) (setting [1]), more than 30000 nM; on BRD8(2) (BRD8(2)), more than 50000 nM; on BRD8(2) (setting [1]) it was more than 30000 nM; at BRD9 (BRD9) it was 2900 nM; at BRDT(2) (BRDT(2)) it was 22000 nM. Moreover, the equilibrium dissociation constant (Kd) at PBRM1(5) is 4.5 µM; on WDR9(2) (WDR9(2)) it was more than 50000 nM; at WDR9(2) (setting [1]), more than 30000 nM.

For the molecule `O=C(C=CN1[C@H]2CC[C@@H]1c1ncnc(NC3CC3)c1C2)c1ccccc1O` [PFI-3 D1], the Kd at ATAD2A (BROMOscan, ATAD2A) is more than 30000 nM; at BAZ2A (BROMOscan, BAZ2A), more than 30 µM; on BAZ2B (BROMOscan, BAZ2B), more than 30000 nM; on BRD1 (BROMOscan, BRD1), more than 30 µM; at BRD3(1,2) (BROMOscan, BRD3(1,2)), more than 30000 nM; on BRD3(2) (BROMOscan, BRD3(2)), more than 30000 nM. The Kd is more than 30 µM on BRD4(1,2) (BROMOscan, BRD4(1,2)); more than 30000 nM at BRD8(1) (BROMOscan, BRD8(1)); more than 30000 nM on BRD8(2) (BROMOscan, BRD8(2)); more than 30000 nM at BRD9 (BROMOscan, BRD9); more than 30000 nM on BRDT(2) (BROMOscan, BRDT(2)); more than 30000 nM at BRPF1 (BROMOscan, BRPF1). In addition, the Kd on PBRM1(5) (BROMOscan) was 0.036 µM; on WDR9(2) (BROMOscan, WDR9(2)), more than 30000 nM.

Turning to `O=C(C=CN1CC2CC1CN2c1ccccn1)c1ccccc1O` (centres unmarked) [PFI-3], the Kd was more than 30000 nM on ATAD2A (setting [2]); more than 100000 nM at ATAD2A (KD, ATAD2A); more than 100 µM on BAZ2A; more than 30000 nM on BAZ2B (setting [2]); more than 100000 nM on BAZ2B (KD, BAZ2B); more than 30000 nM at BRD3(1,2) (setting [2]). For the same molecule, the Kd on BRD3(1,2) (KD, BRD3(1,2)) was more than 100000 nM; on BRD3(2) (setting [2]), more than 30000 nM; at BRD3(2) (KD, BRD3(2)) it was more than 100000 nM; on BRD8(1) (setting [2]), more than 30000 nM; on BRD8(1) (KD, BRD8(1)) it was more than 100000 nM; on BRD8(2) (setting [2]), more than 30000 nM. Besides, the Kd at BRD8(2) (KD, BRD8(2)) was more than 100000 nM; at BRD9 (setting [2]), more than 30000 nM; on BRD9 (KD, BRD9), more than 100000 nM; on BRDT(2) (setting [2]), more than 30000 nM; at BRDT(2) (KD, BRDT(2)), more than 100000 nM; at BRPF1 (setting [2]), more than 30000 nM. The Kd on BRPF1 (KD, BRPF1) is more than 100000 nM; on WDR9(2) (setting [2]) it was more than 30000 nM; at WDR9(2) (KD, WDR9(2)), more than 100000 nM.

`COc1ccc(CCc2nc3cc(-c4c(C)noc4C)ccc3n2C[C@H](C)N2CCOCC2)cc1Cl` [SGC-CBP30]: the Kd is more than 30000 nM at ATAD2A (setting [2]); more than 100000 nM on ATAD2A (KD, BROMOscan, ATAD2A); 69 µM at BAZ2A; more than 30000 nM at BAZ2B (setting [2]); more than 100000 nM at BAZ2B (KD, BROMOscan, BAZ2B); 21 µM on BRD1. Moreover, the dissociation constant (Kd) was 1100 nM on BRD3(1,2) (KD, BROMOscan, BRD3(1,2)); 2300 nM on BRD3(2) (KD, BROMOscan, BRD3(2)); 3.4 µM at BRD4(1,2); more than 30000 nM on BRD8(1) (setting [2]); more than 100000 nM on BRD8(1) (KD, BROMOscan, BRD8(1)); more than 30000 nM on BRD8(2) (setting [2]). In addition, the Kd at BRD8(2) (KD, BROMOscan, BRD8(2)) is more than 100000 nM; on BRD9 (KD, BROMOscan, BRD9), 6100 nM; on BRDT(2) (setting [2]), more than 30000 nM; at BRDT(2) (KD, BROMOscan, BRDT(2)), more than 100000 nM; at BRPF1 (KD, BROMOscan, BRPF1), 2400 nM; on PBRM1(5) (KD, BROMOscan) it was 49.7 µM. For the same molecule, the Kd at WDR9(2) (KD, BROMOscan, WDR9(2)) came to 12000 nM.

On to `O=C(O)c1ccccc1O` [Salicylic Acid], for which the Kd at BAZ2A was more than 14000 µM; on BAZ2B (KD, BAZ2B) it was more than 1.4e+07 nM; at BRD1, more than 14000 µM; at BRD4(1,2) it was more than 14000 µM; on BRD8(1) (KD, BRD8(1)), more than 1.4e+07 nM; at BRD8(2) (KD, BRD8(2)) it was more than 1.4e+07 nM. Also, the Kd on BRD9 (KD, BRD9) is more than 1.4e+07 nM; on BRDT(2) (KD, BRDT(2)) it was more than 1.4e+07 nM; on BRPF1 (KD, BRPF1) it was 4.2e+06 nM; on PBRM1(5) (KD) it was 160 µM; at WDR9(2) (KD, WDR9(2)), more than 1.4e+07 nM.
